Data set [1] in a line: Inhibition of Trypanosoma brucei P1 transporter assessed as reduction in [3H]-adenosine uptake by scintillation counting method.
The nature of data set [2]: Inhibition of Trypanosoma brucei P2 transporter assessed as reduction in [3H]-adenosine uptake by scintillation counting method.
The nature of data set [3]: Resistance factor, ratio of EC50 for antitrypanosomal activity against drug resistant Trypanosoma brucei ISMR1 to antitrypanosomal activity against Trypanosoma brucei brucei Lister 427 blood stream form. In kind it is functional.
Data set [4] relates to Trypanosoma brucei brucei. Put plainly: Antitrypanosomal activity against Trypanosoma brucei brucei assessed as reduction in parasite growth incubated for 3 days by resazurin dye based fluorescence assay. To be noted: 72 h. It counts as functional, organism-based. (In general: Alamar Blue is a resazurin reagent that responds to reducing activity.)
Data set [5] deals with Trypanosoma brucei. As to the kind of experiment: Antitrypanosomal activity against drug resistant Trypanosoma brucei ISMR1 assessed as reduction in parasite viability incubated for 48 hrs by resazurin dye based fluorescence assay. Conditions: ISMR1, 48 h. In kind it is functional, organism-based.
Data set [6] concerns Trypanosoma brucei. Put plainly: Antitrypanosomal activity against drug resistant Trypanosoma brucei harboring TbAT1 deficient assessed as reduction in parasite viability incubated for 48 hrs by resazurin dye based fluorescence assay. In kind it is functional, organism-based.
A short description of data set [7]: Selectivity index, ratio of EC50 for cytotoxicity against human MRC5 cells to EC50 for antitrypanosomal activity against Trypanosoma brucei rhodesiense. It counts as toxicity, cell-based. Conditions: read-out: Ratio EC50.
Data set [8] in a line: Selectivity index, ratio of EC50 for cytotoxicity against human MRC5 cells to EC50 for antitrypanosomal activity against Trypanosoma brucei brucei. In kind it is toxicity, cell-based. Conditions: read-out: Ratio EC50.
The test system of data set [9] is Trypanosoma brucei. As to the kind of experiment: Antitrypanosomal activity against drug resistant Trypanosoma brucei B48 assessed as reduction in parasite viability incubated for 48 hrs by resazurin dye based fluorescence assay. It counts as functional, organism-based. Conditions: B48, 48 h.
Data set [10] in a line: Resistance factor, ratio of EC50 for antitrypanosomal activity against drug resistant Trypanosoma brucei B48 to antitrypanosomal activity against Trypanosoma brucei brucei Lister 427 blood stream form. In kind it is functional.
Data set [11] in a line: (§1) Inhibition of Trypanosoma brucei P2 transporter assessed as reduction in [3H]-adenosine uptake measured after 60 sec by scintillation counting method.
Data set [12] can be described thus: Resistance factor, ratio of EC50 for antitrypanosomal activity against drug resistant Trypanosoma brucei harboring TbAT1 deficient to antitrypanosomal activity against Trypanosoma brucei brucei Lister 427 blood stream form. It counts as functional.
Data set [13] relates to Trypanosoma brucei rhodesiense. Put plainly: Antitrypanosomal activity against Trypanosoma brucei rhodesiense assessed as reduction in parasite growth incubated for 3 days by resazurin dye based fluorescence assay. It counts as functional, organism-based. Conditions: 72 h.
The nature of data set [14]: (§2) Inhibition of Trypanosoma brucei P1 transporter assessed as reduction in [3H]-adenosine uptake measured after 60 sec by scintillation counting method.
The test system of data set [15] is MRC5. As to the kind of experiment: Cytotoxicity against human MRC5 cells assessed as reduction in cell viability incubated for 3 days by resazurin dye based fluorescence assay. Conditions: MRC5, 72 h.
Data set [16] has as its system Trypanosoma brucei brucei. As to the kind of experiment: Antitrypanosomal activity against Trypanosoma brucei brucei Lister 427 blood stream forms assessed as reduction in parasite viability incubated for 48 hrs by resazurin dye based fluorescence assay. It counts as functional, organism-based. To be noted: Lister 427, 48 h.
Data set [17] relates to Trypanosoma brucei. The description is as §1.
Data set [18] concerns Trypanosoma brucei. The data set is described as §2.

The values below come from ChEMBL document CHEMBL4680158, “C6-O-alkylated 7-deazainosine nucleoside analogues: Discovery of potent and selective anti-sleeping sickness agents” (Eur J Med Chem, 2020).

The term Ki denotes the dissociation constant of the complex between target and ligand, obtained from inhibition or displacement. What is called EC50 is the midpoint of the concentration-response curve. The term Km denotes the substrate concentration at which the rate is half of its maximum.

With `Nc1ncnc2c1ccn2[C@@H]1O[C@H](CO)[C@@H](O)[C@H]1O` [TUBERCIDIN], the Ki in [1] turned out to be 78 µM; in data set [2], 3.8 µM.

Turning to `CC(C)Oc1ncnc2c1c(Cl)cn2[C@@H]1O[C@H](CO)[C@@H](O)[C@H]1O`, the Ratio EC50 came to 1.47 in [3], 1.02 in data set [10] and 1.08 in data set [12]. The 50% effective concentration (EC50) in data set [4] is 0.09 µM; in data set [5], 0.27 µM; in [6] it was 0.198 µM; in data set [9] it was 0.188 µM; in [13], 0.1 µM; in data set [15], over 64 µM. Further, in [16], the EC50 was 0.184 µM. Besides, the selectivity ratio was over 640 in [7] and over 711 in [8]. Also, the Ki turned out to be 246 µM in data set [11] and 284 µM in data set [14].

As to `Nc1ncnc2c1ncn2[C@@H]1O[C@H](CO)[C@@H](O)[C@H]1O`, the Km is 0.53 µM in data set [17] and 0.12 µM in [18].

Regarding `COc1ncnc2c1c(Cl)cn2[C@@H]1O[C@H](CO)[C@@H](O)[C@H]1O`, the Ratio EC50 is 0.84 in [3], 0.57 in data set [10] and 0.57 in data set [12]. The EC50 is 0.16 µM in [4]; 0.084 µM in data set [5]; 0.057 µM in data set [6]; 0.057 µM in data set [9]; 0.036 µM in [13]; at least 32 µM in data set [15]. For the same molecule, the EC50 in data set [16] was 0.1 µM. Also, the selectivity ratio in data set [7] was over 888; in data set [8], over 200. Besides, the Ki stood at 149 µM in data set [11] and 35.5 µM in data set [14].

Turning to `COc1ncnc2c1c(Br)cn2[C@@H]1O[C@H](CO)[C@@H](O)[C@H]1O`, the Ratio EC50 in [3] was 0.85; in [10], 0.77; in [12], 0.71. Also, the EC50 in data set [4] was 0.19 µM; in data set [5], 0.099 µM; in [6], 0.083 µM; in data set [9] it was 0.09 µM; in [13], 0.036 µM; in data set [15], over 64 µM. The EC50 in [16] amounted to 0.117 µM. For the same molecule, the values for the selectivity ratio in data set [7] and in [8] were over 1780 and over 336, respectively.

For `N=C(N)c1ccc(OCCCCCOc2ccc(C(=N)N)cc2)cc1`, the Ratio EC50 in data set [3] came out at 13.8; in data set [10] it was 94.6; in data set [12] it was 1.8.

In the case of `CCOc1ncnc2c1c(Cl)cn2[C@@H]1O[C@H](CO)[C@@H](O)[C@H]1O`, the Ratio EC50 in data set [3] was 2.45; in [10], 1.7; in data set [12] it was 1.43. Further, the concentration giving a half-maximal response (EC50) in data set [4] was 0.12 µM; in data set [5], 0.194 µM; in [6] it was 0.113 µM; in data set [9], 0.134 µM; in data set [13], 0.057 µM; in data set [15] it was at least 64 µM. In addition, the EC50 in data set [16] was 0.079 µM. Also, the selectivity ratio in data set [7] was over 578; in [8] it was over 275. Also, the values for the Ki in data set [11] and in data set [14] were 139 µM and 99 µM, respectively.
